Read-outs that look alike come from different tables or passages of the source. Where a SMILES comes first, the peptide text is derived from it. [ ]: non-standard residue; d: D form. The star is where a group is joined. hLys(Nζ-OH,Nζ-For) = N[C@@H](CCCCCN(O)C=O)C(=O)O; Asu = N[C@@H](CCCCCC(=O)O)C(=O)O; NH(2-NH2-phenyl) = Nc1ccccc1N*
What was measured:
[1] = amide bond, 12-membered ring, DMF
[2] = test system: human wild-type p21 promoter; assay: p21 promoter-inducing activity (luciferase) in MFLL-9 cells; type: cell-based
Method: The HDAC inhibitory activity in vivo was measured using p21 promoter-inducing activity as an index, as shown below. The MFLL-9 cells employed for the experiments stably maintained fusion genes of human wild-type p21 promoter and luciferase (Dr. B. Vogelstaein). Using phenol red-free DMEM medium comprising 10% FBS, cultivation was carried out in a steam-saturated incubator at 37° C. with 5% carbon dioxide. The MFLL-9 cells were plated at a density of 85,000 cells/well on a 96-well microtiter plate, each in 99 μl of the above-mentioned medium. These were then cultivated for six hours. One μl of test compound solution was added to each well, which was then cultured for another 18 hours.
The intensity of luminescence caused by the product of the enzyme reaction for intracellular luciferase expression was measured using Luc Lite (Packard BioScience Company).
HDAC inhibitory activity in an in vivo system was measured using p21 promoter induction as index. The experimental method followed that of Example 11.

mouse HDAC6 = target: T1, mouse HDAC6 (Mus musculus, UniProt Q9Z2V5); assay: HDAC inhibitory activity in vitro (coumarin-labeled acetylated histone peptide), HDAC6; type: biochemical
T1 construct: HA; made in house; host or cells: 293T cells, transient transfection; anti-HA immunoprecipitation and HA peptide elution
T1 sequence (Q9Z2V5 1-1149): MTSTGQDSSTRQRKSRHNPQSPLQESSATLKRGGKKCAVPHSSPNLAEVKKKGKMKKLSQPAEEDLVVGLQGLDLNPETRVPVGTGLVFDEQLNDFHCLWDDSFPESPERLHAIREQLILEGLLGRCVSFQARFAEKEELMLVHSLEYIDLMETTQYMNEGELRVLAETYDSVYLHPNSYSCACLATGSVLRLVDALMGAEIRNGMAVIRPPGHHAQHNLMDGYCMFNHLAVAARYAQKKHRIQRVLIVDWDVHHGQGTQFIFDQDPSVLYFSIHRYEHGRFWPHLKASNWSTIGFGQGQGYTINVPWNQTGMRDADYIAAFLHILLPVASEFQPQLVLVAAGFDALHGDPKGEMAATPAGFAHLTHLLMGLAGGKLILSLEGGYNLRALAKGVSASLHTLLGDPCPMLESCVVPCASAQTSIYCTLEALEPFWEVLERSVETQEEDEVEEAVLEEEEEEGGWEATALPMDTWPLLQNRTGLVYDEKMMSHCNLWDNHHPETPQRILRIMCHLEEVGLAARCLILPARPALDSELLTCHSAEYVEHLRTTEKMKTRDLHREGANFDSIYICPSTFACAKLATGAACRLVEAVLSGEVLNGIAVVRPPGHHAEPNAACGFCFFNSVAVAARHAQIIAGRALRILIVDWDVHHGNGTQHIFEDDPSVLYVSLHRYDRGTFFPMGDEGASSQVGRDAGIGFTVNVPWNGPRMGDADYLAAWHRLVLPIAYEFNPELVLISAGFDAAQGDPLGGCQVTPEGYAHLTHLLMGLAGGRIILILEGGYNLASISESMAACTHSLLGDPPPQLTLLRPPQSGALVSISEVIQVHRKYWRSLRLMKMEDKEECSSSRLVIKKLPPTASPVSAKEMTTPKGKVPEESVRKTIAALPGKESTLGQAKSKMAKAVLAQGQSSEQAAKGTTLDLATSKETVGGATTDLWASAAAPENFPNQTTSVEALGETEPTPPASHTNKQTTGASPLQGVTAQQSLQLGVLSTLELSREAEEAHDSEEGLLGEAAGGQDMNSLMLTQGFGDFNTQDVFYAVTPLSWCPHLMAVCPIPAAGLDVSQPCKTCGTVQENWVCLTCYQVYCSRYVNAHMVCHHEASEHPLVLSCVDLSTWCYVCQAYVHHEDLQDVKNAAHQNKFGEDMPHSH

human HDAC4 = target: T2, human HDAC4 (Homo sapiens, UniProt P56524); assay: HDAC inhibitory activity in vitro (coumarin-labeled acetylated histone peptide), HDAC4; type: biochemical
T2 construct: FLAG; made in house; host or cells: 293T cells, transient transfection; anti-FLAG immunoprecipitation and FLAG peptide elution
T2 sequence (P56524 whole entry): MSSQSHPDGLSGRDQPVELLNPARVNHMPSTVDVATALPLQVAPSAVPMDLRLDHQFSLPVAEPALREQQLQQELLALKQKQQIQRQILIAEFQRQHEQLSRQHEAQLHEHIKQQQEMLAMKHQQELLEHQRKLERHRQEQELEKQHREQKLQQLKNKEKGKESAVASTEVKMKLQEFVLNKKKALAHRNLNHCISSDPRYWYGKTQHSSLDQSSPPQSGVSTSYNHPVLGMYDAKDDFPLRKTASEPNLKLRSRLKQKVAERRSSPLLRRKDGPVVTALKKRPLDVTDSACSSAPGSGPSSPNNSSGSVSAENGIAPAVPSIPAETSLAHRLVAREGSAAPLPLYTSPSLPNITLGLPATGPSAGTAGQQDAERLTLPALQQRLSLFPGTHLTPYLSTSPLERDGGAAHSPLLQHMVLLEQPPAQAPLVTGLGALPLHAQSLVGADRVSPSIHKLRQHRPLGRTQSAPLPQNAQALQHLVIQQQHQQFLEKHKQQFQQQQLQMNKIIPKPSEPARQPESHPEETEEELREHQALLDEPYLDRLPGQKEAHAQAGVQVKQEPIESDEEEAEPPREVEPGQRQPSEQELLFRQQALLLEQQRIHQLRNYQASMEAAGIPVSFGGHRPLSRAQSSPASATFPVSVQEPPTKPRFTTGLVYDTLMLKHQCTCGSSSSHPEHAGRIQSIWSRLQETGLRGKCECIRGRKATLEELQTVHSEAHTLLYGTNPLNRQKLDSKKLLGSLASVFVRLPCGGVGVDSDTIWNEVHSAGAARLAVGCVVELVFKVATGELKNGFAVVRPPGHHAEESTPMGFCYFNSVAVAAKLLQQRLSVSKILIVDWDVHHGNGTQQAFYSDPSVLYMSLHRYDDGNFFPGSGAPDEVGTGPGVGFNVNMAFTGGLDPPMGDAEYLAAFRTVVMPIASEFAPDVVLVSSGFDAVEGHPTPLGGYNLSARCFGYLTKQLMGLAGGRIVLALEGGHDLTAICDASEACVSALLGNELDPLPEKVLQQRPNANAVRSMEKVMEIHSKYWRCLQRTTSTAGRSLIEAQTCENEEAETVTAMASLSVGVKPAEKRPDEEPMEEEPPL

human HDAC1 = target: T3, human HDAC1 (Homo sapiens, UniProt Q13547); assay: HDAC inhibitory activity in vitro (coumarin-labeled acetylated histone peptide), HDAC1; type: biochemical
T3 construct: FLAG; made in house; host or cells: 293T cells, transient transfection; anti-FLAG immunoprecipitation and FLAG peptide elution
T3 sequence (Q13547 whole entry): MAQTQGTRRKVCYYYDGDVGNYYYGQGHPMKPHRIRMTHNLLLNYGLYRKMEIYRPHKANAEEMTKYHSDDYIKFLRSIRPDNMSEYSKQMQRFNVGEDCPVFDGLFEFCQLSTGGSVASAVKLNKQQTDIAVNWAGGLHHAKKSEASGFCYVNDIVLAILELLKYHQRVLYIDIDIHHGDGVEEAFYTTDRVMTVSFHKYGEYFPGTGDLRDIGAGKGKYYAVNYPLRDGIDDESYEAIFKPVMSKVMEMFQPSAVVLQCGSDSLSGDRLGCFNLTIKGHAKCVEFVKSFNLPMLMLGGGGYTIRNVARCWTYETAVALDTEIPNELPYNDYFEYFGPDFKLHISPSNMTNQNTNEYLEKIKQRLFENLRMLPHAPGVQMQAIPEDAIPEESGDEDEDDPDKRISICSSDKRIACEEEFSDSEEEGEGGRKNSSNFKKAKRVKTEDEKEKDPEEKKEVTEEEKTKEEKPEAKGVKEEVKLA

[3] = Table 1, MFLL-9 cells, 18 hours, concentration corresponding to 50% of the maximum active value for TSA
[4] = Table 1, 37° C., 30 minutes, read-out: IC50 (μM) HDAC6
[5] = Table 1, 37° C., 30 minutes, read-out: IC50 (μM) HDAC4
[6] = Table 1, 37° C., 30 minutes, read-out: IC50 (μM) HDAC1

| EC50 [2, 3] [µM] | IC50 (mouse HDAC6; [4]) [µM] | IC50 (human HDAC4; [5]) [µM] | IC50 (human HDAC1; [6]) [µM] | Compound | further results |
| --- | --- | --- | --- | --- | --- |
|  |  |  |  | CC[C@H](C)[C@@H]1NC(=O)[C@@H](Cc2ccc(OC)cc2)NC(=O)[C@H](CCCCOn2nnc3cccnc32)NC(=O)[C@H]2CCCN2C1=O [cyclo(-L-Ab6-D-Tyr(Me)-L-Ile-D-Pro-)] | ring closure, isolated yield ([1]; from H-dTyr(Me)-Ile-dPro-Ab6-OH, HBTU/HOBt/DIEA, 5.4 mM, 2 steps): 32% |
|  |  |  |  | cyclo(-L-Aph-D-Tyr(Me)-L-Ile-D-Pro-) | ring closure, isolated yield ([1]; HATU/DIEA, 2.7 mM, 25.0 °C, 2 steps): 11% |
| > 100 |  |  |  | CC[C@H](C)[C@@H]1NC(=O)[C@@H](Cc2ccc(OC)cc2)NC(=O)[C@H](CCCCS(=O)(=O)CC(=O)C(F)(F)F)NC(=O)[C@H]2CCCN2C1=O [Stfk] |  |
| 3.95 | > 500 | 0.07 | 0.12 | CC[C@H](C)[C@@H]1NC(=O)[C@@H](Cc2ccc(OC)cc2)NC(=O)[C@H](CCCCCC(=O)OC)NC(=O)[C@H]2CCCN2C1=O [COOMe, cyclo(-L-Asu(OMe)-D-Tyr(Me)-L-Ile-D-Pro-)] (cyclo([Asu](OMe)[dY](Me)I[dP])) |  |
|  | 12.2 | 7.02 | 6.36 | CC[C@H](C)[C@@H]1NC(=O)[C@@H](Cc2ccc(OC)cc2)NC(=O)[C@H](CCCCCCN(O)C=O)NC(=O)[C@H]2CCCCN2C1=O [N(OH)COH Cyclo(X-y(Me)-I-pip), n = 6] |  |
|  |  |  |  | CC[C@H](C)[C@@H]1NC(=O)[C@@H](Cc2ccc(OC)cc2)NC(=O)[C@H](CCCCN(C=O)OCc2ccccc2)NC(=O)[C@H]2CCCCN2C1=O [cyclo(-L-Lys(For, OBzl)-D-Tyr(Me)-L-Ile-D-Pip-)] | ring closure, isolated yield ([1]; from H-dTyr(Me)-Ile-dPip-Lys(For,OBzl)-OH?, HATU/DIEA, 0.4 mM, 25.0 °C): 25% |
|  |  |  |  | CC[C@H](C)[C@@H]1NC(=O)[C@@H](Cc2ccc(OC)cc2)NC(=O)[C@H](CCCCCC(=O)Nc2ccccc2N)NC(=O)[C@H]2CCCN2C1=O [OPD, cyclo(L-Asu(OPD)-D-Tyr(Me)-L-Ile-D-Pro)] (cyclo([Asu](NH(2-NH2-phenyl))[dY](Me)I[dP])) | IC50 (mouse HDAC6; Table 3, method of Example 11, read-out: IC50(μM) HDAC6): 321 µM; EC50 ([2]; Table 3, method of Example 11, 50% of the maximum activity observed in TSA): 30.9 µM; IC50 (human HDAC4; Table 3, method of Example 11, read-out: IC50(μM) HDAC4): 15.7 µM; IC50 (human HDAC1; Table 3, method of Example 11, read-out: IC50(μM) HDAC1): 4.04 µM |
|  | 0.78 | 0.074 |  | CC[C@H](C)[C@@H]1NC(=O)[C@@H](Cc2ccc(OC)cc2)NC(=O)[C@H](CCCCCN(O)C=O)NC(=O)[C@H]2CCCN2C1=O [N(OH)COH Cyclo(X-y(Me)-I-p), n = 5] (cyclo([hLys(Nζ-OH,Nζ-For)][dY](Me)I[dP])) |  |
| > 100 |  |  |  | Cyclo(-L-Asu(OBzl)-D-Tyr(Me)-L-Ile-D-Pro-) [COOBzI] |  |
| > 100 |  |  |  | CC[C@H](C)[C@@H]1NC(=O)[C@@H](Cc2ccc(OC)cc2)NC(=O)[C@H](CCCCCSC)NC(=O)[C@H]2CCCN2C1=O [SMe] |  |
|  | 14.3 | 25.2 | 33.9 | CC[C@H](C)[C@@H]1NC(=O)[C@@H](Cc2ccc(OC)cc2)NC(=O)[C@H](CCCCN(O)C=O)NC(=O)[C@H]2CCCCN2C1=O [N(OH)COH Cyclo(X-y(Me)-I-pip), n = 4] |  |
|  | 11.2 | 18.9 | 13.5 | CC[C@H](C)[C@@H]1NC(=O)[C@@H](Cc2ccc(OC)cc2)NC(=O)[C@H](CCCCCCN(O)C=O)NC(=O)[C@@H]2CCCCN2C1=O [N(OH)COH Cyclo(X-y(Me)-I-Pip), n = 6] |  |

— patent US7662778B2, “Histone deacetylase inhibitor and process for producing the same” (Riken, priority 2003, dated 2010)
